This is an account of results in patent publication US20250241878A1, “TYROSINE AND RESVERATROL DERIVATIVES AS NOVEL MODULATORS OF CELLULAR SERINE ADP-RIBOSYLATION” (UNIVERSITY OF SOUTH CAROLINA, priority 2022, published 2025).

Like-named read-outs stand apart in the source and are kept apart here.

One series relates to AcK56-H3 and AcK16-H4. Put plainly: Histone acetylation immunoblot (AcK56-H3, AcK16-H4). In kind it is cell-based, rat. The arrangement: dose or concentration left out as unconfirmed.
Series [1] concerns PARP1. To be noted: previously observed; cited from earlier work.
The subject of a further series is cleaved caspase-3. Put plainly: Cleaved caspase-3 immunoblot. In kind it is cell-based, rat. To be noted: compound alone; trans-RSV at high concentration. How it is done: FIG. 17E presents immunoblots showing the levels of cleaved caspase-3 in rat cortical neurons (DIV 9/10) after the treatment with D-Tyr (2 mM) for 16 hr.
Series [2] relates to cortical neurons. As to the kind of experiment: DNA fiber analysis (CIdU incorporation). In kind it is cell-based, rat. How it is done: Molecular combing was performed using the FiberComb® Molecular Combing System (Genomic Vision) with a constant stretching factor of 2 kb/μm using […] coverslips (20×20 mm; Genomic Vision). […] The coverslips were then washed with PBS, followed by serial ethanol dehydration (70%-100%). Following two 1×PBS washes, the coverslips were blocked in 3% BSA/1×PBS for 30 min followed by incubation with α-BrdU (for CIdU) (BD [347,580]) (1:100) and ssDNA antibody (MilliporeTM MAB3034) (1:100), for 2 hr at 37° C. After three PBST washes, secondary antibody incubation was done using α-mouse Alexa Fluor® 594 and α-rat Alexa Fluor® 488 (1:500) for 1 hr at 37° C. Coverslips were washed three times with 1×PBST, dehydrated and mounted on slides with mounting media. The stained DNA fibers were visualized using a fluorescence microscope (EVOS FL, Thermo FisherTM Scientific). Analysis was performed in ImageJ by counting the total ssDNA and the CIdU labeled fibers. For each treatment condition, 300 fibers were counted, and the average ratio of CIdU incorporation for ssDNA fibers per condition was used for final representation.

Another series relates to rat cortical neurons. As to the kind of experiment: MTT cell viability assay. The following applies: for effect on D-Tyr mediated neurotoxicity: combination with D-Tyr. More on the design: effect on neurotoxicity induced by etoposide (ETO) / effect on neurotoxicity induced by oxidative stress (H2O2) / effect on neurotoxicity induced by mitochondrial inhibition (MPP+) / neurotoxicity (viability): dose or concentration left out as unconfirmed.

The test system of a further series is monosomes. As to the kind of experiment: Monosome formation in cortical neurons. To be noted: compound alone. Format: cell-based, rat.
The test system of series [3] is interaction of PARP1 with histone H3. Put plainly: PARP1 immunoprecipitation probed for H3. Format: cell-based, rat. How it is done: FIG. 18A presents representative immunoblots and quantification of the interaction of H3 with PARP1. […] The interaction of PARP1 with H3 was determined using anti-H3 antibody.
Series [4] relates to association of raptor with Rab7a. Put plainly: Raptor / Rab7a immunoprecipitation. Format: cell-based, rat. The text has this: FIG. 19C presents cis-RSV-mediated recruitment of raptor to Rab7a-coated late endosomes.
Another series relates to AcK56-H3. The following applies: humans, 500 mg/day dosing; cited from earlier work.
The next series relates to global protein synthesis. As to the kind of experiment: Puromycin incorporation assay. The following applies: compound alone. Format: cell-based, rat. How it is done: (§1) Cultured neurons (DIV 9-10) were washed once with cold 1×PBS and lysed in cell lysis buffer (20 mM Tris-HCl (pH 7.5), 150 mM NaCl, 1 mM Na2EDTA, 1 mM EGTA, 1% Triton™, 2.5 mM sodium pyrophosphate, 1 mM beta-glycerophosphate, 1 mM Na3VO4, 1 μg/ml leupeptin supplemented with protease inhibitor). The lysates were centrifuged at 10,000 RPM for 15 mins at 4° C. to separate the chromatin-bound and soluble fractions. Lysates were quantified using Bio-Rad™ Protein Assay and equal amounts of protein were loaded onto a 4 to 12% gradient gel (Invitrogen™ NuPAGE™). Protein was transferred from the gel to 0.2 μm NC membranes at 25 V for 10 mins using transfer stacks (iBlot™ 2-Invitrogen™) and blocked with 5% non-fat milk in TBST (10 mM Tris-HCl pH 8.0, 150 mM NaCl, 0.01% Tween-20) for 1 hr before application of primary antibodies. Primary and secondary antibodies were incubated overnight at 4° C. and for 1 hr at room temperature, respectively. Immobilon® ECL Ultra Western HRP Substrate (WBULS0500, Millipore™) and a luminescent image analyzer (ChemiDoc™ Imaging System, Bio-Rad™) were used to detect proteins. Quantification of western blots was done using ImageJ (Version 1.53c).

The test system of series [5] is PARP1. Put plainly: Auto-PARylation of PARP1 immunoblot. Format: cell-based, rat.
The next series deals with HPF1. As to the kind of experiment: HPF1 levels immunoblot in cortical neurons. Format: cell-based, rat. To be noted: compound alone. How it is done: FIG. 5A presents immunoblots showing the protein levels of HPF1 in rat cortical neurons (DIV9-10) after treatment with Tyr ([…]) for up to 8 hr.
as §1

Series [6] relates to cortical neurons. Put plainly: Neurite degeneration (MAP2 staining). The following applies: agent alone. Format: cell-based, rat. How it is done: The neurite degeneration index was calculated. Samples were imaged using ImageXpress® Micro 4 at a magnification of 10× to capture the entire field of interest. The samples analyzed for neurite degeneration were stained using the standard immunofluorescence procedure with MAP2 (Alexa Fluor® 647) for neurites and DAPI staining for the nucleus. Neurite degeneration was quantified using 5-6 regions of interest of equal sizes from each treatment condition. The analysis of neurite degeneration was done using ImageJ. The fluorescent images for MAP2 staining were binarized, so that pixel intensity of regions corresponding to neurite staining was converted to black, and all other regions were converted to white. Healthy intact neurites show a continuous tract, whereas degenerated axons have a particulate structure due to fragmentation or beading. To detect degenerated neurites, the particle analyzer module of ImageJ was used. The percentage of the area of the small fragments or particles (size=3-10 μm^2) to the intact neurites (size >25 μm^2) with information derived from the binary images was calculated. A degeneration index (DI) was calculated as the fragmented neurite area ratio over the intact neurite area.

Where [7] appears, read: higher concentrations of trans-RSV (≥25 mM).

Procedure for rat cortical neurons: Rat cortical neurons (DIV9-11) were exposed to different treatments (NMDA, ETO, H2O2, MPP+) after seeding 20,000 cells/well in 96-well plates. Cell viability was then assessed at 48 hr after the initial exposure to NMDA. 3-[4,5-dimethylthiazole-2-yl]-2,5-diphenyltetrazolium bromide (MTT) assays were used to assess change in cell viability. […] Cultured rat cortical neurons were incubated with MTT (0.5 mg/mL). In the MTT assay, after 2 hr incubation, the insoluble purple product formazan resulting from the reduction of MTT by NAD (P) H-dependent oxidoreductases present in cells with viable mitochondria was solubilized in dimethyl sulfoxide at room temperature, under agitation, and protected from light. The percentage of MTT reduced as measured by the difference between the absorbances at 570 nm read in a spectrophotometer (SpectraMax® 190R Molecular Devices, UK).

Consider `Oc1ccc(/C=C\c2cc(O)cc(O)c2)cc1` [cis-RSV, cis-resveratrol], for which the AcK16-H4 acetylation entry in the series on AcK56-H3 and AcK16-H4 (cis-RSV) is reported as “increased the acetylation of H4 lysine 16”. Also, the “auto-PARylation of PARP1” value in the series on PARP1 [1] is given as “stimulate the auto-PARylation”. The “levels of cleaved caspase-3” value in the series with cleaved caspase-3 is reported as “decreased the levels of caspase-3 cleavage”. Further, in the series on cortical neurons [2] (after cis-RSV treatment), the “reduction of CIdU incorporation compared to control” value is 15-20%. In addition, in the series with rat cortical neurons, the “effect on neurotoxicity induced by etoposide (ETO)” value was “suppressed the neurotoxicity”, the “effect on neurotoxicity induced by mitochondrial inhibition (MPP+)” value was “suppressed the neurotoxicity”, the “effect on neurotoxicity induced by oxidative stress (H2O2)” value is reported as “suppressed the neurotoxicity” and the “effect on D-Tyr mediated neurotoxicity” value was “protected against D-Tyr mediated neurotoxicity”. The “effect on NMDA-mediated toxicity” value in the series with rat cortical neurons (cis-RSV) is on record as “protected against NMDA-mediated toxicity in a concentration-dependent manner”. For the same compound, the “effect on trans-RSV-mediated neurotoxicity” value with rat cortical neurons (combination with trans-RSV) is on record as “protected against the neurotoxicity induced by trans-RSV in a dose-dependent manner”. The monosome formation result with monosomes is given as “stimulate the formation of monosomes”. The “interaction of PARP1 with histone H3” value in series [3] (cis-RSV) is “prevented the interaction of PARP1 with histone H3”. The “association of raptor with Rab7a” value in [4] was “increases the association of raptor with Rab7a”.
Turning to `Oc1ccc(/C=C/c2cc(O)cc(O)c2)cc1` [trans-RSV, trans-resveratrol], in the series on AcK56-H3 and AcK16-H4 (trans-RSV), the AcK16-H4 acetylation entry was “inhibited H3 and H4 acetylation at lysines 56 and 16”; the AcK56-H3 acetylation result is “inhibited H3 and H4 acetylation at lysines 56 and 16”. The “acetylation of H3 at lysine 56 (AcK56-H3)” value in the series with AcK56-H3 is “inhibited the acetylation of H3 at lysine 56”. Moreover, in the series with global protein synthesis, the “global protein synthesis (puromycin incorporation)” value is “inhibited global protein synthesis”. For the same compound, the “levels of cleaved caspase-3” value in the series on cleaved caspase-3 is on record as “increased the levels of cleaved caspase-3”. The “incorporation of nucleoside analog CIdU into DNA fibers” value in the series on cortical neurons [2] (compound alone) is listed as “prevented the incorporation of the nucleoside analog CIdU into DNA fibers”. In the series with rat cortical neurons, the “effect on neurotoxicity induced by etoposide (ETO)” value is recorded as “did not protect against these neurotoxic agents”, the “effect on neurotoxicity induced by mitochondrial inhibition (MPP+)” value was “did not protect against these neurotoxic agents”, the “effect on neurotoxicity induced by oxidative stress (H2O2)” value is given as “did not protect against these neurotoxic agents” and the “neurotoxicity (viability)” value is “by itself was neurotoxic”. Besides, in the series on rat cortical neurons, the “effect on D-Tyr mediated neurotoxicity” value was “protected against D-Tyr mediated neurotoxicity but not trans-RSV”. Moreover, in the series on rat cortical neurons (setting [7]), the “effect on NMDA mediated neurotoxicity” value is reported as “exacerbated the toxicity”. In addition, the “effect on NMDA mediated neurotoxicity” value with rat cortical neurons (low concentrations of trans-RSV (≤10 mM)) was “evoked protective effects”. Moreover, the “interaction of PARP1 with histone H3” value in series [3] (higher concentrations (≥25 mM) of trans-RSV) is “increased it”. The “interaction of PARP1 with histone H3” value in series [3] (low concentrations of trans-RSV) was “prevented the interaction of PARP1 with histone H3”. In addition, the “auto-PARylation of PARP1” value in the series on PARP1 [5] (setting [7]) is listed as “inhibit the auto-PARylation of PARP1”. In the series with PARP1 [5] (low concentration of trans-RSV, converted to cis-RSV in solution), the “auto-PARylation of PARP1” value was “stimulates the auto-PARylation of PARP1”. The HPF1 levels result in the series with HPF1 was “decreased HPF1 levels”.
In the case of `N[C@@H](Cc1ccc(O)cc1)C(=O)O` [tyrosine, L-tyrosine], in the series with cortical neurons [6], the neurite degeneration result is recorded as “did not induce neurite degeneration”. Moreover, the “auto-PARylation of PARP1” value in the series on PARP1 [1] is on record as “inhibits the auto-PARylation of PARP1”. In addition, the HPF1 levels entry in the series on HPF1 is reported as “decreased HPF1 levels”.
